# Results published in publication PMC3656107, “Polymorphisms in the F8 Gene and MHC-II Variants as Risk Factors for the Development of Inhibitory Anti-Factor VIII Antibodies during the Treatment of Hemophilia A: A Computational Assessment” (PLoS Computational Biology, 2013).
# What was measured:
# MHC-II DRB1*03:01 [1] = target: T1, MHC-II DRB1*03:01 (Homo sapiens, UniProt P01903+P01911, A100K/A102G/A103R/A169T/F55Y/I96L/K41T/L162R/M171V/P40S/Q125H/Q178H/Q39Y/R42S/S66N/T106N/T262R/W38E/Y61H); assay: Cell-free REVEAL class II stability assay; settings: half-life of peptide-MHC-II complex (h, capped at 120) x Binding Score / 100, conformational ELISA
# Experimental: (§1) We measured the half-life of each peptide-MHC-II complex using REVEAL peptide-MHC affinity assays developed by ProImmune Ltd. (Oxford, UK). On-rates of peptides were measured over a 96-hr period at 10°C. A unique positive control peptide was used for each MHC-II allele. Samples of assembling peptide-MHC complexes were taken at defined time points and snap-frozen in liquid nitrogen prior to analysis. Assembly of peptide-MHC complexes was detected using a conformational ELISA involving an anti-HLA antibody. On-rates were calculated by fitting data to a one-phase association curve: [drawing 1] To determine the off-rates of the peptides, samples of dissociating complexes were taken at defined time points and frozen in liquid nitrogen prior to analysis. Percent denaturation of peptide-MHC complexes was also detected using a conformational ELISA. Off-rates were calculated by fitting data to a one-phase dissociation curve: [drawing 2] On- and off-rate half-life values (t1/2) were calculated from the rate constant (k) using the following equation: [drawing 3] To obtain a normalized stability score, the half-life values were multiplied by the Binding Score (see above) and divided by 100.
# MHC-II DRB1*04:01 [2] = target: T2, MHC-II DRB1*04:01 (Homo sapiens, UniProt P01903+P01911, A100K/A169T/F76Y/I96L/K127E/L162R/M171V/N62H/P40V/Q125Y/R42H/S133A/S149N/S66Y/V115G/V209L/W38E); assay: Cell-free REVEAL class II stability assay; settings: half-life of peptide-MHC-II complex (h, capped at 120) x Binding Score / 100, conformational ELISA
# Experimental: as §1
# MHC-II DRB1*15:01 [3] = target: T3, MHC-II DRB1*15:01 (Homo sapiens, UniProt P01903+P01911); assay: Cell-free REVEAL class II stability assay; settings: half-life of peptide-MHC-II complex (h, capped at 120) x Binding Score / 100, conformational ELISA
# T3 construct: purchased ProImmune
# Experimental: as §1
# MHC-II DRB1*11:01 [4] = target: T4, MHC-II DRB1*11:01 (Homo sapiens, UniProt P01903+P01911, A100R/A169T/A87E/I96F/K41T/L162R/M171V/P40S/Q125H/Q178H/Q39Y/Q99D/R42S/S66Y/T262R/V115G/W38E); assay: Cell-free REVEAL class II stability assay; settings: half-life of peptide-MHC-II complex (h, capped at 120) x Binding Score / 100, conformational ELISA
# Experimental: as §1
# MHC-II DRB1*07:01 [5] = target: T5, MHC-II DRB1*07:01 (Homo sapiens, UniProt P01903+P01911, A100R/A102G/A103Q/D57E/D86V/E43K/F76Y/K127E/L162R/M171V/P40G/Q125H/Q99D/R33Q/R42Y/R54Q/S133A/S66F/T210M/V115G/Y107V/Y59L/Y89S); assay: Cell-free REVEAL class II stability assay; settings: half-life of peptide-MHC-II complex (h, capped at 120) x Binding Score / 100, conformational ELISA
# Experimental: as §1
# MHC-II DRB1*15:03 [6] = target: T6, MHC-II DRB1*15:03 (Homo sapiens, UniProt P01903+P01911, Y59H); assay: Cell-free REVEAL class II stability assay; settings: half-life of peptide-MHC-II complex (h, capped at 120) x Binding Score / 100, conformational ELISA
# T6 construct: purchased ProImmune
# Experimental: as §1
# MHC-II DRB1*03:01 [7] = target: T1, MHC-II DRB1*03:01; assay: Cell-free REVEAL class II binding assay; settings: signal of test peptide as percentage of allele-specific positive control peptide, fluorescence, conformation-specific monoclonal antibody
# Source text: (§2) We used a proprietary high throughput, REVEAL binding assay (ProImmune, www.proimmune.com) to estimate the binding of individual test peptides to the following MHC-II variants: DRB1*03:01, DRB1*04:01, DRB1*07:01, DRB1*11:01, DRB1*15:01 and DRB1*15:03 [28]. Detection of a peptide binding to each MHC-II protein is based on the presence or absence of the native conformation of the MHC-peptide complex. The peptide-MHC-II complex is detected by an increase in a fluorescence signal due to the binding of a specific monoclonal antibody. Each test-peptide is given a score relative to a positive control peptide, which is a known T-cell epitope for that MHC-II molecule. The score is reported quantitatively as a percentage of the signal generated by the test peptide compared with the positive control peptide. Assay performance is evaluated by including in each set of measurements an intermediate control peptide which is known to bind the MHC-II molecule but with a lower affinity than the positive control peptide. Note that the positive control peptide used to determine the binding score is different from the positive control peptides depicted in the figures, which are known T-cell epitopes identified in the FVIII molecule.
# MHC-II DRB1*04:01 [8] = target: T2, MHC-II DRB1*04:01; assay: Cell-free REVEAL class II binding assay; settings: signal of test peptide as percentage of allele-specific positive control peptide, fluorescence, conformation-specific monoclonal antibody
# Source text: as §2
# MHC-II DRB1*15:01 [9] = target: T3, MHC-II DRB1*15:01; assay: Cell-free REVEAL class II binding assay; settings: signal of test peptide as percentage of allele-specific positive control peptide, fluorescence, conformation-specific monoclonal antibody
# Source text: as §2
# MHC-II DRB1*11:01 [10] = target: T4, MHC-II DRB1*11:01; assay: Cell-free REVEAL class II binding assay; settings: signal of test peptide as percentage of allele-specific positive control peptide, fluorescence, conformation-specific monoclonal antibody
# Source text: as §2
# MHC-II DRB1*07:01 [11] = target: T5, MHC-II DRB1*07:01; assay: Cell-free REVEAL class II binding assay; settings: signal of test peptide as percentage of allele-specific positive control peptide, fluorescence, conformation-specific monoclonal antibody
# Source text: as §2
# MHC-II DRB1*15:03 [12] = target: T6, MHC-II DRB1*15:03; assay: Cell-free REVEAL class II binding assay; settings: signal of test peptide as percentage of allele-specific positive control peptide, fluorescence, conformation-specific monoclonal antibody
# Source text: as §2
# T4 sequence (P01903 26-254 limits assumed, other chains not shown): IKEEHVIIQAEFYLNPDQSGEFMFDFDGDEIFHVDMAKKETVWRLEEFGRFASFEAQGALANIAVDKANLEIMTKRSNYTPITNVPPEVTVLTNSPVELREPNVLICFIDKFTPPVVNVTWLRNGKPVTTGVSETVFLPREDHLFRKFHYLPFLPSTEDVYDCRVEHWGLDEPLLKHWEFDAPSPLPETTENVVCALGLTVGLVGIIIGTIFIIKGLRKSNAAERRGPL
# T6 sequence (P01903 26-254, other chains not shown): as the sequence (P01903 26-254 limits assumed, other chains not shown) above
# T1 sequence (P01903 26-254 limits assumed, other chains not shown): as above
Sequence,Stability Index (MHC-II DRB1*03:01 [1]),Stability Index (MHC-II DRB1*04:01 [2]),Stability Index (MHC-II DRB1*15:01 [3]),Stability Index (MHC-II DRB1*11:01 [4]),Stability Index (MHC-II DRB1*07:01 [5]),Stability Index (MHC-II DRB1*15:03 [6]),Binding Score (MHC-II DRB1*03:01 [7]) [%],Binding Score (MHC-II DRB1*04:01 [8]) [%],Binding Score (MHC-II DRB1*15:01 [9]) [%],Binding Score (MHC-II DRB1*11:01 [10]) [%],Binding Score (MHC-II DRB1*07:01 [11]) [%],Binding Score (MHC-II DRB1*15:03 [12]) [%]
"LQVDFQKTMKVTGVT [synthetic wild type FVIII 15 mer peptide, region of ns-SNP M2238V]",13.5,0.9,0.3,62.0,0.1,0.0,30.7,11.6,4.4,235.0,0.1,1.5
"LSTRQNVEGSYDGAY [synthetic wild type FVIII 15 mer peptide, region of ns-SNP D1241E]",0.0,3.2,0.0,0.0,0.0,0.0,0.0,15.2,0.0,0.2,0.0,0.0
"MKVTGVTTQGVKSLL [synthetic wild type FVIII 15 mer peptide, region of ns-SNP M2238V]",0.0,0.8,0.8,0.0,0.0,0.0,0.0,7.8,1.4,0.1,0.0,0.0
"NNPKEWLQVDFQKTM [synthetic wild type FVIII 15 mer peptide, region of ns-SNP M2238V]",0.0,0.1,0.2,0.1,0.1,0.1,12.6,1.7,0.1,3.5,0.6,0.1
"PENDIEKTDPWFAHR [synthetic wild type FVIII 15 mer peptide, region of ns-SNP R776G]",0.0,0.1,0.1,0.1,0.0,0.0,0.0,0.7,0.1,2.9,0.0,0.3
PIIARYIRLHPTHYS [synthetic wild type FVIII 15 mer peptide],0.0,6.9,1100.9,9.0,0.0,13.3,0.3,25.4,917.4,118.8,0.0,11.1
PLLTRYLRIHPQSWV [synthetic wild type FVIII 15 mer peptide],0.0,1.4,857.7,8.8,2.0,12.8,0.0,12.1,714.7,62.8,1.7,10.7
PPLLTRYLRIHPQSW [synthetic wild type FVIII 15 mer peptide],0.0,0.9,483.9,5.9,8.4,26.0,0.0,9.6,403.3,42.2,7.0,21.7
PQVNNPKEWLQVDFQ [synthetic wild type FVIII 15 mer peptide],0.0,0.0,0.2,0.0,0.0,0.0,0.0,0.0,0.1,0.1,0.0,0.0
PRCLTRYYSSFVNME [synthetic wild type FVIII 15 mer peptide],0.1,0.7,404.2,1.2,0.0,86.8,0.9,9.6,336.9,20.5,0.0,72.3
"PWFAHRTPMPKIQNV [synthetic wild type FVIII 15 mer peptide, region of ns-SNP R776G]",0.1,0.8,0.4,0.5,3.2,0.0,0.1,6.4,4.7,4.9,2.7,0.2
QKFSSLYISQFIIMY [synthetic wild type FVIII 15 mer peptide],0.1,0.2,27.5,0.0,0.0,0.0,0.5,1.9,22.9,0.4,0.0,0.0
